From the Deep4Chem optical property database
Blank lines part the entries; values can stand above or below the compound they belong to.

Assay: solvent given as SMILES

SMILES: CC1=[N+]2C(=C(c3c4ccccc4c(-c4ccccc4)c4ccccc34)c3ccc(C)n3[B-]2(F)F)C=C1
- emission maximum (in CC#N): 536 nm
- emission maximum (in CCCCCC): 527 nm
- emission maximum (in CCO): 528 nm
- emission maximum (in CN(C)C=O): 533 nm
- emission maximum (in Cc1ccccc1): 532 nm
- emission maximum (in ClCCl): 533 nm

- emission maximum (in C1CCCCC1): 392 nm
SMILES: COc1ccc2c3c(c4ccc(OC)cc4c2c1)C(C)(C)c1cc(-c2ccccc2)ccc1-3

- emission maximum (in ClCCl): 423 nm
SMILES: c1ccc2c(-c3cc4c(ccc5sc(-c6cccc7ccccc67)cc54)s3)cccc2c1

SMILES: CC1(C)c2ccccc2N(c2ccc(-c3ccc4c(c3)C(=O)c3ccc(-c5ccc(N6c7ccccc7C(C)(C)c7ccccc76)cc5)cc3C4=O)cc2)c2ccccc21
- emission maximum (in Cc1ccccc1): 609 nm
- emission maximum (in c1ccc2c(c1)c1ccccc1n2-c1ccc(-c2ccc(-n3c4ccccc4c4ccccc43)cc2)cc1): 564 nm

SMILES: Cc1cc(-n2c3ccccc3c3cc(C#N)ccc32)ccc1-c1ccc(S(=O)(=O)c2ccccc2)cc1C
- emission maximum (in C1CCOC1): 369.19 nm
- emission maximum (in CC#N): 369.19 nm
- emission maximum (in Cc1ccccc1): 352 nm
- emission maximum (in ClCCl): 369.19 nm

SMILES: CN(C)c1ccc(/C=C/c2nc(/C=C/c3ccc(N(c4ccccc4)c4ccccc4)cc3)cc(/C=C/c3ccc(N(c4ccccc4)c4ccccc4)cc3)n2)cc1
- emission maximum (in C1CCOC1): 512 nm
- emission maximum (in CC#N): 574 nm
- emission maximum (in CC(C)=O): 552 nm
- emission maximum (in CCCCCCC): 460 nm
- emission maximum (in CS(C)=O): 577 nm
- emission maximum (in Cc1ccccc1): 495 nm
- emission maximum (in ClCCl): 577 nm

- emission maximum (in CC#N): 452 nm
SMILES: Cc1cccc2nc3[nH]c(=O)[nH]c(=O)c3nc12

- emission maximum (in CC#N): 391 nm
SMILES: COc1ccc2c(c1)nc(-c1ccccc1)n2-c1ccccc1

SMILES: CC1(C)c2ccccc2N(c2ccc(-c3ccc(C#N)cn3)cc2)c2ccccc21
- emission maximum (in Cc1ccccc1): 504 nm
- emission maximum (in N#Cc1ccc2c(c1)c1ccccc1n2-c1cccc(-n2c3ccccc3c3ccccc32)c1): 495 nm

- emission maximum (in ClCCl): 434 nm
SMILES: C(S/C=C/c1ccc(-c2ccc(/C=C/SC=C3CCCCCC3)cc2)cc1)=C1CCCCCC1

SMILES: C#CCOc1ccc(C2=[N+]3C(=Nc4c(-c5ccccc5)cc(-c5ccc(O)cc5)n4[B-]3(F)F)C(c3ccccc3)=C2)cc1
- emission maximum (in CO): 716 nm
- emission maximum (in Cc1ccccc1): 711 nm
- emission maximum (in ClC(Cl)Cl): 708 nm

- emission maximum (in ClCCl): 640 nm
SMILES: CN(C)c1ccc(/C=C/c2cnc(/C=C/c3ccc(C#N)cc3)o2)cc1

- emission maximum (in ClC(Cl)Cl): 699 nm
SMILES: CN1C(=CC2=C([O-])C(=CC3=[N+](C)c4ccccc4C3(C)C)C2=C2C(=O)c3ccccc3C2=O)C(C)(C)c2ccccc21

SMILES: Brc1ccc(-c2nc(-c3ccc(C#Cc4ccc(-n5c6ccccc6c6ccccc65)cc4)cc3)nc(-c3ccc(C#Cc4ccc(-n5c6ccccc6c6ccccc65)cc4)cc3)n2)cc1
- emission maximum (in C1CCOC1): 465 nm
- emission maximum (in CC#N): 563 nm
- emission maximum (in CCCCCC): 411 nm
- emission maximum (in Cc1ccccc1): 432 nm
- emission maximum (in ClCCl): 498 nm

- emission maximum (in CCCCCC): 694 nm
SMILES: CC(C)[Si](C#Cc1c2nc3ccccc3nc2c(C#C[Si](C(C)C)(C(C)C)C(C)C)c2nc3ccccc3nc12)(C(C)C)C(C)C

SMILES: CCN(CC)c1ccc(/C=C/C2=[O+][B-](F)(F)Oc3c2c(=O)oc2cc(N(CC)CC)ccc32)cc1
- emission maximum (in C1CCCCC1): 556 nm
- emission maximum (in C1COCCO1): 610 nm
- emission maximum (in CC#N): 644 nm
- emission maximum (in CC(C)=O): 636 nm
- emission maximum (in CCO): 635 nm
- emission maximum (in CCOC(C)=O): 617 nm
- emission maximum (in CO): 637 nm
- emission maximum (in CS(C)=O): 659 nm
- emission maximum (in Cc1ccccc1): 597 nm
- emission maximum (in ClC(Cl)Cl): 622 nm
- emission maximum (in ClCCl): 634 nm
- emission maximum (in OCC(O)CO): 654 nm
- emission maximum (in OCCO): 653 nm

- emission maximum (in C1CCOC1): 390 nm
SMILES: F[B-]1(F)Oc2ccccc2-c2n(-c3ccc(C(F)(F)F)cc3)c(-c3ccccc3)c(-c3ccccc3)[n+]21

- emission maximum (in CCO): 644 nm
SMILES: CC/[NH+]=c1\cc2oc3cc(NCCC(=O)NC(C)C(=O)OC)c4ccccc4c3nc-2cc1C (centres undefined)

SMILES: CCN(CC)c1ccc(-c2ccc(-c3nc(C#N)c4ccccc4n3)s2)cc1
- emission maximum (in CC#N): 539 nm
- emission maximum (in Cc1ccccc1): 471 nm

- emission maximum (in CC#N): 418 nm
- emission maximum (in CCCCCC): 403 nm
- emission maximum (in CO): 430 nm
- emission maximum (in CS(C)=O): 422 nm
- emission maximum (in ClC(Cl)Cl): 410 nm
SMILES: CCN(CC)c1ccc(/C=N/Nc2ccc(C#N)cc2)c(O)c1

- emission maximum (in CC#N): 446 nm
- emission maximum (in CCCCCC): 415 nm
- emission maximum (in CO): 482 nm
- emission maximum (in CS(C)=O): 456 nm
- emission maximum (in ClC(Cl)Cl): 425 nm
SMILES: N#Cc1ccc(N/N=C/c2ccc3ccccc3c2O)cc1

SMILES: N#Cc1cc(-n2c3ccccc3c3ncccc32)c(-n2c3ccccc3c3ncccc32)cc1C#N
- emission maximum (in CC#N): 520.47 nm
- emission maximum (in CCCCCC): 443.72 nm
- emission maximum (in Cc1ccccc1): 450.7 nm
- emission maximum (in ClCCl): 476.51 nm
- emission maximum (in c1cc(-n2c3ccccc3c3ccccc32)cc(-n2c3ccccc3c3ccccc32)c1): 477.27 nm
